We go through two compounds from US6872818B2, “Ammonium sulfate for neutralization of inhibitory effects” (QIAGEN GmbH, priority 2001, dated 2005).

One test has as its system RT-PCR reaction. To be noted: final concentration of 1 mM.
A further test relates to cDNA synthesis. Description: Reverse transcription / PCR in presence of SYBRGREEN dye. The test is classed as biochemical. To be noted: final concentration of 100×. On the procedure: Reverse transcription reactions containing 0×, 0.001×, 0.01×, 0.1×, 1×, 10× and 100× SYBRGREEN® dye were performed. In order to quantify the generated cDNA after RT-reaction, 2 μl of the RT reaction was transferred to a 20 μl PCR mixture. PCR products were analyzed by gel-electrophoresis.

Description for RT-PCR reaction: In order to quantify the generated cDNA after RT reactions, 2 μl of each RT reaction mixture was transferred to a 20 μl PCR mixture.

As for `NCCCNCCCCNCCCN` [spermine], the “reduction in signals produced from an RT-PCR reaction” value in the test on RT-PCR reaction is listed as “up to 4 fold”.

Take `CCCN(CCCN(C)C)c1cc(/C=C2/Sc3ccccc3N2C)c2ccccc2[n+]1-c1ccccc1` [SYBRGREEN® dye]: the cDNA synthesis entry in the test with cDNA synthesis is “total loss of cDNA synthesis”.
